This is an account of results in patent publication US20240092799A1, “MNK INHIBITORS” (Hepagene Therapeutics (HK) Limited, priority 2020, published 2024).

The target of test [1] is MNK2 (Homo sapiens (Human), UniProt Q9HBH9). The test can be described thus: MNK Biochemical Enzymatic Assay (ADP-Glo), MNK2 binding assay. An outline of the steps:
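Human MNK1 or MNK2 was preincubated with a 10-point, 1:3 serial dilution of compound for 15 min at 25 °C. Substrate was then added and the reaction ran 60 min at 25 °C. ADP formed was read by ADP-Glo luminescence, and IC50 came from non-linear regression.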

In test [2] the test system is TMD-8 cell p-IF4E. The test can be described thus: p-eIF4E Signaling Cellular Assay (CisBio HTRF) in TMD-8 cells. In kind it is cell-based. The conditions noted are these: Homo sapiens, TMD8, 40 min, 40 min treatment. The procedure: p-eIF4E Signaling Cellular Assay. Phosphorylated eIF4E is assayed using the CisBio p-Eif4E HTRF assay kit. Reagents and equipment used in the assay are listed below, followed by the protocol.
Cell medium: RPMI 1640+10% FBS+1*PS, TMD-8 were cultured as recommended and assayed in exponential growth phase. • a) Plate 30 μL of cells in 384 white assay plate in appropriate medium and proper cell density (20 k/well) based on Optimization at 37° C. under 5% CO2 atmosphere • b) Dispense 90 nL of compounds diluted in DMSO and treat for 40 min at 37° C. under 5% CO2 atmosphere • c) Remove cell supernatant by flicking the plate • d) Add 16 μL of supplemented lysis buffer (1×) for 30 minutes at RT under shaking • e) Add 4 μL of premixed antibody solutions prepared in the detection buffer. Cover the plate with a plate sealer. Incubate 0/N at RT • f) Read the fluorescence emission at 665 nm and 620 nm on Envision • g) Data analysis • (1) Ratio […] signal is calculated for each well • (2) % Inhibition is calculated as follow:
% inhibition=100−(Signalcmpd-SignalAve_PC)/(SignalAve_VC-SignalAve_PC)×100. • (3) Calculate IC50 and Plot effect-dose curve of cmpds:
Calculate IC50 by fitting % Inhibition values and log of compound concentrations to nonlinear regression (dose response−variable slope) with Graphpad 8.0.
Y=Bottom+(Top−Bottom)/(1+10^((Log IC50−X)*Hill Slope)) • X: log of Inhibitor concentration; Y: % Inhibition.

Sequence of MNK2 (Q9HBH9 whole entry): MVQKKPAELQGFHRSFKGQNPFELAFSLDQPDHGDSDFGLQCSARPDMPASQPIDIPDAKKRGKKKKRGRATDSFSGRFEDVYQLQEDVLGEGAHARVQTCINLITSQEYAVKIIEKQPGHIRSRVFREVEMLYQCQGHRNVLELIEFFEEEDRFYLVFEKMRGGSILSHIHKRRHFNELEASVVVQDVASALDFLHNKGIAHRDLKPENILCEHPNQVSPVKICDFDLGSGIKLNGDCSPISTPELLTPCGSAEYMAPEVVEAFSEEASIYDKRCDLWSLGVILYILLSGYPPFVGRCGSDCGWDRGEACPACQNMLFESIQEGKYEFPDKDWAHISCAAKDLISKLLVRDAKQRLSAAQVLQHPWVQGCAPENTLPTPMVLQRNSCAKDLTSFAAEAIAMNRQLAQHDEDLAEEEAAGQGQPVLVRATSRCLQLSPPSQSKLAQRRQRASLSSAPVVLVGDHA

As usually defined, the IC50 is the concentration needed to halve the response being measured. Read a low IC50 as higher potency. `Cc1cc(Nc2cc(Nc3ccc(N4CCN(C)CC4)cn3)ncn2)[n+]([O-])c2c1C(=O)NC21CCCCC1` [Compound XXIX-AO, 4′-methyl-2′-[(6-{[5-(4-methylpiperazin-1-yl)pyridin-2-yl]amino}pyrimidin-4-yl)amino]-5′-oxo-5′,6′-dihydrospiro[cyclohexane-1,7′-pyrrolo[3,4-b]pyridin]-1′-ium-1′-olate]: the half-inhibitory concentration (IC50) in test [1] and in test [2] was 0.1 to 10 nM in each case.
Turning to `Cc1cc(Nc2cc(Nc3ccon3)ncn2)[n+]([O-])c2c1C(=O)NC21CCCCC1` [Compound XXIX-AAD, 2′-((6-(isoxazol-3-ylamino)pyrimidin-4-yl)amino)-4′-methyl-5′-oxo-5′,6′-dihydrospiro[cyclohexane-1,7′-pyrrolo[3,4-b]pyridine] 1′-oxide], the IC50 in test [1] and in test [2] was 0.1 to 10 nM throughout.
In the case of `CN1CCN(c2ccc(Nc3cc(Nc4nc5c(s4)C(=O)NC54CCCCC4)ncn3)nc2)CC1` [Compound XXVIII-R, 2′-((6-((5-(4-methylpiperazin-1-yl)pyridin-2-yl)amino)pyrimidin-4-yl)amino)spiro [cyclohexane-1,4′-pyrrolo[3,4-d]thiazol]-6′(5′H)-one], the IC50 in test [1] and in test [2] was 0.1 to 10 nM throughout.
For the compound `CNC(=O)Nc1cc(Nc2nc3c(s2)C(=O)NC32CCCCC2)ncn1` [Compound XXVIII-L, 1-methyl-3-(6-((6′-oxo-5′,6′-dihydrospiro[cyclohexane-1,4′-pyrrolo[3,4-d]thiazol]-2′-yl)amino)pyrimidin-4-yl)urea], the half-maximal inhibitory concentration (IC50) in test [1] lay within 0.1 to 10 nM; in test [2] it was 100 to 1000 nM.
In the same order, the values of `Cn1cc(Nc2cc(Nc3cc4c(s3)C(=O)NC43CCCCC3)ncn2)cn1` [Compound XXIV-K, 2′-((6-((1-methyl-1H-pyrazol-4-yl)amino)pyrimidin-4-yl)amino)spiro[cyclohexane-1,4′-thieno[2,3-c]pyrrol]-6′(5′H)-one] are 0.1 to 10 nM and 100 to 1000 nM.
The corresponding values for `O=C1NC2(CCCCC2)c2cc(Nc3ncnc4[nH]ncc34)sc21` [Compound XVII-B, 2′-((1H-pyrazolo[3,4-d]pyrimidin-4-yl)amino)spiro[cyclohexane-1,4′-thieno[2,3-c]pyrrol]-6′(5′H)-one] are 0.1 to 10 nM and 100 to 1000 nM.
The corresponding values for `CNC(=O)Nc1cc(Nc2cc3c(s2)C(=O)NC32CCCCC2)ncn1` [Compound XXIV-G, 1-methyl-3-(6-((6′-oxo-5′,6′-dihydrospiro[cyclohexane-1,4′-thieno[2,3-c]pyrrol]-2′-yl)amino)pyrimidin-4-yl)urea] are 0.1 to 10 nM and 100 to 1000 nM.
As for `O=C1NC2(CCCCC2)c2cc(Nc3cc(Nc4ccccn4)ncn3)sc21` [Compound XXIII-C, 2′-((6-(Pyridin-2-ylamino)pyrimidin-4-yl)amino)spiro[cyclohexane-1,4′-thieno[2,3-c]pyrrol]-6′(5′H)-one], the IC50 in test [1] fell in the range of 0.1 to 10 nM; in test [2], 10 to 100 nM.
The corresponding values for `O=C1NC2(CCCCC2)c2cc(Nc3ccnc(N[C@H]4CCOC4)c3)sc21` [Compound XXIV-B, (S)-2′-((2-((tetrahydrofuran-3-yl)amino)pyridin-4-yl)amino)spiro[cyclohexane-1,4′-thieno[2,3-c]pyrrol]-6′(5′H)-one] are 0.1 to 10 nM and 10 to 100 nM.
For `Cn1ccc(Nc2cc(Nc3cc4c(s3)C(=O)NC43CCCCC3)ncn2)n1` [Compound XXIII-P, 2′-((6-((1-methyl-1H-pyrazol-3-yl)amino)pyrimidin-4-yl)amino)spiro[cyclohexane-1,4′-thieno[2,3-c]pyrrol]-6′(5′H)-one], the values for the 50% inhibitory concentration (IC50) in test [1] and in test [2] were 0.1 to 10 nM and 10 to 100 nM, respectively.
Regarding `Cc1cc(Nc2cc(Nc3ccc(N4CCCCC4)cn3)ncn2)[n+]([O-])c2c1C(=O)NC21CCCCC1` [Compound XXIX-AAM, 4′-methyl-5′-oxo-2′-((6-((5-(piperidin-1-yl)pyridin-2-yl)amino)pyrimidin-4-yl)amino)-5′,6′-dihydrospiro[cyclohexane-1,7′-pyrrolo[3,4-b]pyridine] 1′-oxide], the IC50 in test [1] and in test [2] was 0.1 to 10 nM in each case.
With `O=C1NC2(CCCCC2)c2cc(Nc3cc(NCC4CCCC4)ncn3)sc21` [Compound XXIV-H, 2′-((6-((cyclopentylmethyl)amino)pyrimidin-4-yl)amino)spiro[cyclohexane-1,4′-thieno[2,3-c]pyrrol]-6′(5′H)-one], the IC50 in test [1] and in test [2] was 10 to 100 nM each time.
In the case of `Cc1cc(Nc2ncnc3[nH]ccc23)[n+]([O-])c2c1C(=O)NC21CCCCC1` [Compound XXIX-F, 2′-((7H-pyrrolo[2,3-d]pyrimidin-4-yl)amino)-4′-methyl-5′-oxo-5′,6′-dihydrospiro[cyclohexane-1,7′-pyrrolo[3,4-b]pyridine] 1′-oxide], the IC50 in test [1] lay in the range of 0.1 to 10 nM.
In turn, `Cc1cc(Nc2ncnc3[nH]cnc23)[n+]([O-])c2c1C(=O)NC21CCCCC1` [Compound XXIX-O, 2′-((9H-purin-6-yl)amino)-4′-methyl-5′-oxo-5′,6′-dihydrospiro[cyclohexane-1,7′-pyrrolo[3,4-b]pyridine] 1′-oxide] returned an IC50 in test [1] of 10 to 100 nM.
The same measure, in the same setting: to `Cc1cccnc1Nc1cc(Nc2cc3c(s2)C(=O)NC32CCCCC2)ncn1` [Compound XXIII-S, 2′-((6-((3-methylpyridin-2-yl)amino)pyrimidin-4-yl)amino)spiro [cyclohexane-1,4′-thieno[2,3-c]pyrrol]-6′(5′H)-one] belongs 100 to 1000 nM; to `Cc1cc(Nc2cc(Nc3cccnc3)ncn2)[n+]([O-])c2c1C(=O)NC21CCCCC1` [Compound XXIX-AJ, 4′-methyl-5′-oxo-2′-((6-(pyridin-3-ylamino)pyrimidin-4-yl)amino)-5′,6′-dihydrospiro[cyclohexane-1,7′-pyrrolo[3,4-b]pyridine] 1′-oxide], 10 to 100 nM.
Turning to `Cc1cc(Nc2cc(NC3CCCC3)ncn2)[n+]([O-])c2c1C(=O)NC21CCCCC1` [Compound XXIX-L, 2′-((6-(cyclopentylamino)pyrimidin-4-yl)amino)-4′-methyl-5′-oxo-5′,6′-dihydrospiro[cyclohexane-1,7′-pyrrolo[3,4-b]pyridine] 1′-oxide], in test [1], the IC50 lay within 10 to 100 nM.
Same read-out and setting: to `Cc1cc(Nc2ncnc(Nc3ccccn3)c2C)[n+]([O-])c2c1C(=O)NC21CCCCC1` [Compound XXIX-AN, 4′-methyl-2′-((5-methyl-6-(pyridin-2-ylamino)pyrimidin-4-yl)amino)-5′-oxo-5′,6′-dihydrospiro[cyclohexane-1,7′-pyrrolo[3,4-b]pyridine] 1′-oxide] belongs over 1000 nM.
Regarding `Cc1cc(Nc2cc(N[C@@H]3CCOC3)ncn2)[n+]([O-])c2c1C(=O)NC21CCCCC1` [Compound XXIX-AX, (R)-4′-methyl-5′-oxo-2′-((6-((tetrahydrofuran-3-yl)amino)pyrimidin-4-yl)amino)-5′,6′-dihydrospiro[cyclohexane-1,7′-pyrrolo[3,4-b]pyridine] 1′-oxide], in test [1], the IC50 lay in the range of 10 to 100 nM.
Consider `O=C1NC2(CCCCC2)c2cc(Nc3cc(Nc4ccncc4)ncn3)sc21` [Compound XXIII-O, 2′-((6-(pyridin-4-ylamino)pyrimidin-4-yl)amino)spiro[cyclohexane-1,4′-thieno[2,3-c]pyrrol]-6′(5′H)-one], for which the IC50 in test [1] fell in the range of 10 to 100 nM.
